Measured values as given in ChEMBL document CHEMBL5291721, “A preclinical secondary pharmacology resource illuminates target-adverse drug reaction associations of marketed drugs” (Nat Commun, 2023).

Assays:
Adenosine receptor A2a = Adenosine receptor A2a (Homo sapiens, UniProt P29274)
[1] = molecular target: Neuronal acetylcholine receptor subunit alpha-4 (Homo sapiens, UniProt P43681)
[2] = molecular target: T1, Neuropeptide Y receptor type 1 (Homo sapiens, UniProt P25929)
T1 sequence (P25929 whole entry): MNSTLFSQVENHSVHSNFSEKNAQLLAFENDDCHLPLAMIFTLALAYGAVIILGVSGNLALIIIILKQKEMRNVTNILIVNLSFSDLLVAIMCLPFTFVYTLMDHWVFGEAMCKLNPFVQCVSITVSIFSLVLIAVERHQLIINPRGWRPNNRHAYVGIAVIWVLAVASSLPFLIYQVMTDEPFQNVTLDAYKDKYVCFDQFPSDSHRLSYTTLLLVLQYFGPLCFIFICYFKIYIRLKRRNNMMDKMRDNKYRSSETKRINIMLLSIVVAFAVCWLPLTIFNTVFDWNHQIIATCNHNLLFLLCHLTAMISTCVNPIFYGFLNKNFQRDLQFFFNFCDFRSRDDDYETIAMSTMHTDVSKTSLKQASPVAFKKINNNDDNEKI

[3] = molecular target: Kappa-type opioid receptor (Homo sapiens, UniProt P41145)
[4] = molecular target: T2, Gamma-aminobutyric acid receptor subunit alpha-1 (Rattus norvegicus, UniProt P62813); assay type: functional
[5] = molecular target: T3, 5-hydroxytryptamine receptor 2C (Homo sapiens, UniProt P28335)
T3 sequence (P28335 whole entry): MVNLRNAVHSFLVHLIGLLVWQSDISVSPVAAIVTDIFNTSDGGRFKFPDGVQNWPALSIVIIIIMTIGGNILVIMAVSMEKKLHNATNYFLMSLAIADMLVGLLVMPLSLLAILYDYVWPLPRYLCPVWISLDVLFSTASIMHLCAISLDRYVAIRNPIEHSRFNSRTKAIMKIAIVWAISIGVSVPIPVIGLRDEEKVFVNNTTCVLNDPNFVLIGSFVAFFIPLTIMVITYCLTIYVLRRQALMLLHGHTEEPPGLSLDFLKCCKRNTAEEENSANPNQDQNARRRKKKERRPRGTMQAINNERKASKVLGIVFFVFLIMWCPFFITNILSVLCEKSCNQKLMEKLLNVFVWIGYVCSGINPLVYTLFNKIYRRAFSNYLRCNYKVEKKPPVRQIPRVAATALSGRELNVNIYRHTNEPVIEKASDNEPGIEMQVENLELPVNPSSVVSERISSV

[6] = molecular target: T4, Alpha-1A adrenergic receptor (Homo sapiens, UniProt P35348); assay type: functional, cell-based
T4 sequence (P35348 whole entry): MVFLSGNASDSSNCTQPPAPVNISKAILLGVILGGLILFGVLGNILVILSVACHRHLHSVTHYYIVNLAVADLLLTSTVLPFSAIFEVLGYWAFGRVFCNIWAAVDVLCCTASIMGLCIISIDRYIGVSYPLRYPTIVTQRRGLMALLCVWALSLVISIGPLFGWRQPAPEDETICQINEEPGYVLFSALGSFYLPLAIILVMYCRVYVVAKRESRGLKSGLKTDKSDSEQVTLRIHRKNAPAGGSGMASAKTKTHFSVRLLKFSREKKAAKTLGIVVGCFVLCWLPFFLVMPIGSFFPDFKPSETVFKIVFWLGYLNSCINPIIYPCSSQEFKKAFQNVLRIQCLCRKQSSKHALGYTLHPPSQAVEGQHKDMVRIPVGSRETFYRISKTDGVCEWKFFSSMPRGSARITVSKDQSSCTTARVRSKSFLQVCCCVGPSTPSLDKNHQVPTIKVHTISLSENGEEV

[7] = molecular target: T2, Gamma-aminobutyric acid receptor subunit alpha-1
[8] = molecular target: T5, Beta-2 adrenergic receptor (Homo sapiens, UniProt P07550)
[9] = molecular target: T6, Muscarinic acetylcholine receptor M2 (Homo sapiens, UniProt P08172); assay type: functional, cell-based
T6 sequence (P08172 whole entry): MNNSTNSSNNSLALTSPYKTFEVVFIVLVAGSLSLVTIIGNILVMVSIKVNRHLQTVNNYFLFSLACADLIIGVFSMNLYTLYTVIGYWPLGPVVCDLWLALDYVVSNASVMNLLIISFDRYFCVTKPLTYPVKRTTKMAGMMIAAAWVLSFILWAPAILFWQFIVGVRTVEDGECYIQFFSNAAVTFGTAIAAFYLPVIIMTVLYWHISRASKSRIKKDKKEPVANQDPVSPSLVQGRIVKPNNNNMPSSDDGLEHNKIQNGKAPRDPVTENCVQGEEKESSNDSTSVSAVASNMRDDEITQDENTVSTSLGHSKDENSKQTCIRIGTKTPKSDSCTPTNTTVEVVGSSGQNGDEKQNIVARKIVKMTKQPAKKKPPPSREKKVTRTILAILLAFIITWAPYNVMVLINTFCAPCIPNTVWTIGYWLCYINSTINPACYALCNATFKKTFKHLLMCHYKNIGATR

Histamine H1 receptor = Histamine H1 receptor (Homo sapiens, UniProt P35367)
[10] = molecular target: T4, Alpha-1A adrenergic receptor; assay type: functional, cell-based; remark: listed apart in the source
[11] = molecular target: T7, Muscarinic acetylcholine receptor M1 (Homo sapiens, UniProt P11229); assay type: functional
T7 sequence (P11229 whole entry): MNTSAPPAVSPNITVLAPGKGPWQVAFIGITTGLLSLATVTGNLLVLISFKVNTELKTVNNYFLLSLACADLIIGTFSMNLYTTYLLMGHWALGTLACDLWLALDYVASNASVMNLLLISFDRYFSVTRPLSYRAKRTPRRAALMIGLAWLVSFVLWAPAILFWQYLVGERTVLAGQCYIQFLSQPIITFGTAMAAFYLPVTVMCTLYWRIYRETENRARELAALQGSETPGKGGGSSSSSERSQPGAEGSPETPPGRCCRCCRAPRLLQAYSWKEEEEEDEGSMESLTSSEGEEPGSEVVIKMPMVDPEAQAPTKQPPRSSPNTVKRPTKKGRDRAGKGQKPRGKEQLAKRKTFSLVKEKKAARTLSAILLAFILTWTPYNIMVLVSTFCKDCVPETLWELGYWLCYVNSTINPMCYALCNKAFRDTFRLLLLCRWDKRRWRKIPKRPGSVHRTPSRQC

[12] = molecular target: T5, Beta-2 adrenergic receptor; assay type: functional, cell-based
Note: assay procedure not described here.

Neuronal acetylcholine receptor subunit alpha-4, sequence (P43681 whole entry): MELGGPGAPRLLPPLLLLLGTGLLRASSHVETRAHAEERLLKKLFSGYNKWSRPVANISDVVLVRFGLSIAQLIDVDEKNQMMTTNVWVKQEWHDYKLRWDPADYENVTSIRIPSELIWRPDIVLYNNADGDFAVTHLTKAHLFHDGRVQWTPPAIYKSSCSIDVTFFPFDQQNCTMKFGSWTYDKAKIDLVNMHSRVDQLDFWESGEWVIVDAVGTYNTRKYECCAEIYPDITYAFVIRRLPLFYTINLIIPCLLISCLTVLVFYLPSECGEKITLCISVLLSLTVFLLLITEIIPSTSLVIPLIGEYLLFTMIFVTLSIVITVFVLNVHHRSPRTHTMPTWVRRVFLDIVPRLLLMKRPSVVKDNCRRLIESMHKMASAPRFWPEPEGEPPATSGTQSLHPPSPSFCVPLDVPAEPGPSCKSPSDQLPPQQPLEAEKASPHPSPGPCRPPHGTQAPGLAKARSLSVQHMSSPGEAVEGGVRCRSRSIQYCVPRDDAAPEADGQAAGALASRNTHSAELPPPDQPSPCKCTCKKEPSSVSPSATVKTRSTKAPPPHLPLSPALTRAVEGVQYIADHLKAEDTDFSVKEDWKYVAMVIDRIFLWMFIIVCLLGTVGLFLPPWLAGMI
Adenosine receptor A2a, sequence (P29274 whole entry): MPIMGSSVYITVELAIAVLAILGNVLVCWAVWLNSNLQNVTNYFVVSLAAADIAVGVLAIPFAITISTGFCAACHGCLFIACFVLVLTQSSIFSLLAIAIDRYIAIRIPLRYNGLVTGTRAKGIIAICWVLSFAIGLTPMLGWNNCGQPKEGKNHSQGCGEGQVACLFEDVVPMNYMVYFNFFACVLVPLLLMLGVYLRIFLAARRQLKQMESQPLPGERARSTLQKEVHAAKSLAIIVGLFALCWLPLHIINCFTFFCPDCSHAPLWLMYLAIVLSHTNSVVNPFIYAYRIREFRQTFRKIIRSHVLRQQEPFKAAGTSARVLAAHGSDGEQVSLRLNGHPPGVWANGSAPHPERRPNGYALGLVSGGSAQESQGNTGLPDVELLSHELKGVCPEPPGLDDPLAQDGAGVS
Kappa-type opioid receptor, sequence (P41145 whole entry): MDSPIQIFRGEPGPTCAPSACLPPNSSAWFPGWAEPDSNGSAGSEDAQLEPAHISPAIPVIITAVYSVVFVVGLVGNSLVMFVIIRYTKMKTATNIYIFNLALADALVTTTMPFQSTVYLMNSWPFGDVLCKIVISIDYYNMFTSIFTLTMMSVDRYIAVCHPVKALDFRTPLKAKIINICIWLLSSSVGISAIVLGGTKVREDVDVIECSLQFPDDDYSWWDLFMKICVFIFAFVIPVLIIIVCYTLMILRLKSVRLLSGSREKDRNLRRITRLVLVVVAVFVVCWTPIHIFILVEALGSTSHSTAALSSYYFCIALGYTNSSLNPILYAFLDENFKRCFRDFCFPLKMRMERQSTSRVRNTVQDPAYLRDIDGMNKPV
T2 sequence (P62813 whole entry): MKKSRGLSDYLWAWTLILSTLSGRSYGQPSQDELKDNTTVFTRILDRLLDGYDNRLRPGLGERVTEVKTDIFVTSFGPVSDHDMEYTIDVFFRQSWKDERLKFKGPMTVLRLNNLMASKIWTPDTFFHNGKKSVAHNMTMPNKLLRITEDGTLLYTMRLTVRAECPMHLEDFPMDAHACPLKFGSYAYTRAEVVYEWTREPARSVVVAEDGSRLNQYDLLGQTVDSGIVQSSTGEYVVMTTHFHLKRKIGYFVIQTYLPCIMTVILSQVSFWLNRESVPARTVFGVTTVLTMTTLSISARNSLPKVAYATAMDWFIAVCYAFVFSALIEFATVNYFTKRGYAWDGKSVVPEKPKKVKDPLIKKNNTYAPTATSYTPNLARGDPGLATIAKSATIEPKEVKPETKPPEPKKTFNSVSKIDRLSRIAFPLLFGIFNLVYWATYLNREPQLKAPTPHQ
Histamine H1 receptor, sequence (P35367 whole entry): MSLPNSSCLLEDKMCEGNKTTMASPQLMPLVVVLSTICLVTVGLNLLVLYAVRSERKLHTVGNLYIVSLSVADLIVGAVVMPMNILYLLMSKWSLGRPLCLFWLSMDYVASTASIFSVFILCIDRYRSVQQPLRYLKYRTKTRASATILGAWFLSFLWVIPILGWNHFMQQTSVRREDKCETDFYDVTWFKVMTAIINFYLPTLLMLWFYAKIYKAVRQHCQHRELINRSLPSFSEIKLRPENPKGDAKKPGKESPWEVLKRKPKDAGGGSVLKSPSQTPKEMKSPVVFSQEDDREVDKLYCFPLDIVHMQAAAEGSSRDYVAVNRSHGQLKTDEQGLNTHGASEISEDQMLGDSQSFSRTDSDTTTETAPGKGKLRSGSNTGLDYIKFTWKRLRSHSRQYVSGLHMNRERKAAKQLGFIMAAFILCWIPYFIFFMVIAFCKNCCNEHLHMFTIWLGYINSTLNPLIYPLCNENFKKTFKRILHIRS
T5 sequence (P07550 whole entry): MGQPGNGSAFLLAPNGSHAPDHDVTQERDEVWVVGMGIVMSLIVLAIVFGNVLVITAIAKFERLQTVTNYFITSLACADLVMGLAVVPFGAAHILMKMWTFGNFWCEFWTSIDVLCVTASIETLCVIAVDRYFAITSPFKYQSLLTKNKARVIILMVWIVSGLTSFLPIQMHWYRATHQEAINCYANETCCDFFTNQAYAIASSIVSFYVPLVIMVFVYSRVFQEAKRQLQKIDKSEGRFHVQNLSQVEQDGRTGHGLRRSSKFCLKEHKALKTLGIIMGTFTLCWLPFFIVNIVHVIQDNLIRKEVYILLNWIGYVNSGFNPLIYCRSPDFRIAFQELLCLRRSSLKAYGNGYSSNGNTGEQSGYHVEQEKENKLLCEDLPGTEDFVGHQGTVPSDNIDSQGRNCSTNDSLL

Row | SMILES | AC50 (Adenosine receptor A2a) [µM] | AC50 [1] [µM] | AC50 [2] [µM] | AC50 [3] [µM] | AC50 [4] [µM] | AC50 [5] [µM] | AC50 [6] [µM] | AC50 [7] [µM] | AC50 [8] [µM] | AC50 [9] [µM] | AC50 (Histamine H1 receptor) [µM] | AC50 [10] [µM] | AC50 [11] [µM] | AC50 [12] [µM]
1 | CCC(CC)(CC(=O)Nc1cccc(/C=C/c2nc(C3CCC3)cs2)c1)C(=O)O | > 30 | > 30 | > 30 |  |  |  |  |  |  |  |  |  |  | 
2 | C[N+]1(CCCCC[N+]2(C)CCCC2)CCCC1 [PENTOLINIUM] |  | > 30 |  |  |  |  |  |  |  |  |  |  |  | 
3 | CCCCCNC(=N)N/N=C/c1c[nH]c2ccc(OC)cc12 [TEGASEROD] | > 30 | > 30 | 11.4 | 4.9 | 13 | 0.543 | 2.1 | > 30 | 7.36 | > 10 | > 30 | > 30 | > 30 | 
4 | O=[N+]([O-])O[C@@H]1CO[C@H]2[C@@H]1OC[C@@H]2O [ISOSORBIDE MONONITRATE] | > 30 |  | > 30 | > 10 | > 10 | > 30 |  | > 10 | > 10 | > 10 | > 10 |  | > 10 | 
5 | CN(C)CC/C=C1\c2ccccc2CSc2ccccc21 [DOTHIEPIN] | > 30 | > 30 | > 30 |  | > 30 | 1.6 | 0.87 | > 30 | > 30 | 1.4 | 0.019 | > 30 |  | > 30
6 | Cc1oc(=O)oc1CN1CCN(c2cc3c(cc2F)c(=O)c(C(=O)O)c2n3C(C)S2)CC1 (stereo not given) [PRULIFLOXACIN] |  |  |  | > 30 | > 30 | > 30 | > 30 | > 30 |  | > 30 | > 30 | > 30 | > 30 | > 30
7 | COc1cc2nc(N3CCN(C(=O)c4ccco4)CC3)nc(N)c2cc1OC [PRAZOSIN] | > 30 | > 10 | > 30 | 4.94 | > 10 | > 30 |  | > 10 | > 10 | > 10 |  |  |  | 
8 | COc1ccccc1N1CCN(CC(O)COc2cccc3ccccc23)CC1 (stereo not given) [NAFTOPIDIL] | > 30 | > 10 |  | 2.2 | > 30 | > 30 | 0.46 | > 30 |  | > 30 | 0.75 | > 30 | > 30 | > 30
9 | CCOc1ccc(Cc2cc([C@@H]3O[C@H](CO)[C@@H](O)[C@H](O)[C@H]3O)ccc2Cl)cc1 [DAPAGLIFLOZIN] | > 30 | > 10 | > 30 | > 10 | > 10 | > 30 |  | > 10 | > 10 |  | > 10 |  | > 10 | 
10 | O=[N+]([O-])c1cn2c(n1)OC[C@@H](OCc1ccc(OC(F)(F)F)cc1)C2 [PRETOMANID] | > 30 |  | > 30 | > 10 | > 10 | > 10 |  | > 10 | > 10 |  | > 10 |  | > 10 | 
11 | COC1=C(OC)C(=O)C(C/C=C(\C)CC/C=C(\C)CC/C=C(\C)CC/C=C(\C)CC/C=C(\C)CC/C=C(\C)CC/C=C(\C)CC/C=C(\C)CC/C=C(\C)CCC=C(C)C)=C(C)C1=O [UBIDECARENONE] |  |  |  | > 30 | > 30 | > 30 | > 30 | > 30 |  | > 30 | > 30 | > 30 | > 30 | > 30
12 | CN(C)CCc1c[nH]c2ccc(C[C@H]3COC(=O)N3)cc12 [ZOLMITRIPTAN] | > 30 | > 30 | > 30 | > 30 | > 30 | > 30 |  | > 30 |  | > 30 | > 30 | 14 | > 30 | > 30
13 | C=CCN1C[C@H](C(=O)N(CCCN(C)C)C(=O)NCC)C[C@@H]2c3cccc4[nH]cc(c34)C[C@H]21 [CABERGOLINE] | > 10 | > 10 | > 10 | > 10 | > 10 | > 30 |  | > 10 | > 10 | > 30 | 6.8 | 0.599 | > 10 | > 30
14 | CCCC1O[C@@H]2C[C@H]3[C@@H]4CCC5=CC(=O)C=C[C@]5(C)[C@H]4[C@@H](O)C[C@]3(C)[C@]2(C(=O)CO)O1 (stereo not given in full) [BUDESONIDE] | > 10 | > 10 | > 10 | > 10 | > 10 | > 30 |  | > 10 | > 10 | > 10 |  |  |  | 
15 | CN1CCN(C2=Nc3ccccc3Sc3ccc(Cl)cc32)CC1 [CLOTHIAPINE] |  |  |  | > 30 | > 30 | 0.8 | 1.2 | > 30 |  | 6.7 | 0.02 | > 30 | 1.2 | > 30
16 | Cc1cc(C)c(NC(=O)CN(CC(=O)O)CC(=O)O)c(C)c1Br [MEBROFENIN] |  |  |  | > 30 | > 30 | > 30 | > 30 | > 30 |  | > 30 | > 30 | > 30 | > 30 | > 30
17 | CC[C@H]1CN2CCc3cc(OC)c(OC)cc3[C@@H]2C[C@@H]1C[C@H]1NCCc2cc(OC)c(OC)cc21 [EMETINE] | > 30 | > 30 | > 30 | > 30 | > 30 | > 30 | > 30 | > 30 | > 30 | > 30 |  | > 30 |  | > 30
